Assay: Potency code of Table 2 (assay not stated)

Row | Structure (SMILES) | Potency code
1 | Cn1nc(-c2ccc(OCCN3CCOCC3)cc2O)c(Oc2ccccc2Cl)c1C(F)(F)F [NUCC-0196341] | + (>40 +)
2 | Cn1cc(-c2ccc(OCc3ccc(Cl)cc3)cc2F)c(C(F)(F)F)n1 [NUCC-0200743] | + (>40 +)
3 | Cn1cc(-c2c[nH]nc2-c2ccc(OCc3ccc(Cl)cc3)cc2O)cn1 [NUCC-0198361] | + (>40 +)
4 | Cn1nc(-c2ccc(OCCN)c(-c3ccc(Cl)c(C(F)(F)F)c3)c2O)cc1C(F)(F)F [NUCC-0201641] | + (>40 +)
5 | Nc1nc(-c2ccc(OCc3ccc(Cl)cc3)cc2O)cc(C(F)(F)F)n1 [NUCC-0200502] | + (>40 +)
6 | COc1ccc(CCOc2ccc(-c3cc(C(F)(F)F)nn3C)c(O)c2-c2cc(C(F)(F)F)cc(C(F)(F)F)c2)cc1 [NUCC-0201028] | + (>40 +)
7 | CCc1ccc(Oc2c(-c3ccc(OCc4ccc(Cl)cc4)cc3O)nn(C)c2CC)cc1 [NUCC-0196294] | + (>40 +)
8 | CCc1ccc(Oc2c[nH]nc2-c2ccc(OCc3ccc(Cl)cc3)cc2O)cc1 [NUCC-0176243] | + (>40 +)
9 | Cn1nc(C(F)(F)F)c(-c2ccccc2)c1-c1ccc(OCc2ccc(Cl)cc2)cc1O [NUCC-0198296] | + (>40 +)
10 | CCCCCCOc1ccc(-c2cc(C(F)(F)F)n[nH]2)c(O)c1-c1cncc(C#N)c1 [NUCC-0201194] | + (>40 +)
11 | Oc1c(-c2cc(C(F)(F)F)[nH]n2)ccc(OCc2ccc(Cl)cc2)c1-c1ccc(Cl)c(C(F)(F)F)c1 [NUCC-0200732] | + (>40 +)
12 | C#CCC(N=[N+]=[N-])C(=O)NCCCOc1ccc(-c2cc(C(F)(F)F)nn2C)c(O)c1-c1ccc(Cl)c(C(F)(F)F)c1 (stereo not shown) [NUCC-0201695] | + (>40 +)
13 | Cn1nc(C(F)(F)F)cc1-c1ccc(OCc2ccc(Cl)cc2)c(-c2ccc(C(F)(F)F)cc2)c1O [NUCC-0200726] | + (>40 +)
14 | CC(C)CCOc1ccc(-c2cc(C(F)(F)F)n(C)n2)c(O)c1-c1cncc(C#N)c1 [NUCC-0201213] | ++++ (<10 ++++)
15 | COc1cccc(-c2c[nH]nc2-c2ccc(OCc3ccc(Cl)cc3)cc2O)c1 [NUCC-0198308] | + (>40 +)
16 | CCCCOc1ccc(-c2cc(C(F)(F)F)[nH]n2)c(O)c1-c1cncc(C(F)(F)F)c1 [NUCC-0201637] | + (>40 +)
17 | CCCCOc1ccc(-c2cc(C(F)(F)F)n[nH]2)c(O)c1-c1ccc(Cl)c(C(F)(F)F)c1 [NUCC-0201225] | + (>40 +)
18 | CCCCOc1ccc(-c2cc(C(F)(F)F)nn2C)c(O)c1-c1cc(C(F)(F)F)cc(C(F)(F)F)c1 [NUCC-0201651] | + (>40 +)
19 | Oc1cc(OCc2ccc(Cl)cc2)ccc1-c1cc(C(F)(F)F)nc(-c2ccc(F)cc2)n1 [NUCC-0200503] | + (>40 +)
20 | Cn1nc(C(F)(F)F)cc1-c1ccc(OCc2ccc(Cl)cc2)cc1Cl [NUCC-0200744] | + (>40 +)
21 | Cn1nc(C(F)(F)F)cc1-c1ccc(OCc2ccc(Cl)cc2)cc1CO [NUCC-0200978] | + (>40 +)
22 | Oc1c(-c2cc(C(F)(F)F)n[nH]2)ccc(OCc2ccc(F)cc2)c1-c1cc(C(F)(F)F)cc(C(F)(F)F)c1 [NUCC-0201033] | + (>40 +)
23 | Oc1cc(Nc2ccc(F)c(F)c2)ccc1-c1cc(C(F)(F)F)[nH]n1 [NUCC-0200559] | ++ (30-40 ++)
24 | Cn1cc(-c2ccc(NCc3ccc(Cl)cc3)cn2)c(C(F)(F)F)n1 [NUCC-0200742] | + (>40 +)
25 | CCc1ccc(Oc2c(-c3ccc(OCCc4cccc(C(F)(F)F)c4)cc3O)n[nH]c2C(F)(F)F)cc1 [NUCC-0176245] | ++ (30-40 ++)
26 | CN/N=C(/C)c1ccc(-c2c(OCc3ccc(Cl)cc3)ccc(-c3cc(C(F)(F)F)[nH]n3)c2O)cc1 [NUCC-0198395] | + (>40 +)
27 | Oc1cc(Oc2ccc(Cl)cc2)ccc1-c1cc(C(F)(F)F)[nH]n1 [NUCC-0200679] | ++ (30-40 ++)
28 | Cn1cc(-c2ccc(F)cc2)c(-c2ccc(OCc3ccc(Cl)cc3)cc2O)n1 [NUCC-0196349] | + (>40 +)

Source: patent US20200392116A1, “SUBSTITUTED HETEROCYCLES AS c-MYC TARGETING AGENTS” (NORTHWESTERN UNIVERSITY, priority 2019, published 2020)
